Results: US8633325B2, “Method for making insect repellent composition” (E I du Pont de Nemours and Company, priority 2002, dated 2014)
Where “and” joins values, the source holds several entries; their conditions need not be identical. Equal values may be shown once.

Tests used:
[1] = test system: stable flies (Stomoxys calcitrans); assay: in vitro membrane repellency test against stable flies; type: in vivo; details: 1% (w/v); for Mean Number of Landings (SEM): 20 minute test; for Mean Number of Landings (SEM) / Mean percentage repellency as calculated from the ANOVA: five replicates; for Mean percentage repellency as calculated from the ANOVA: versus IPA control
Protocol: (§1) Approximately 250 female Aedes aegypti mosquitoes were introduced into a chamber containing 5 wells, each covered by a Baudruche (animal intestine) membrane. Wells were filled with bovine blood, containing sodium citrate (to prevent clotting) and ATP (72 mg ATP disodium salt per 26 ml of blood), and heated to 37° C. A volume of 25 μl of isopropyl alcohol, containing one of the test specimens shown in Table 2, was applied to each membrane.
(§2) After 5 min, 4 day-old female mosquitoes were added to the chamber. The number of mosquitoes probing the membranes for each treatment was recorded at 2 min intervals over 20 min. Each datum represents the mean of three replicate experiments.
(§3) Percentage repellency was calculated for each repellent treatment at each observation time using the following equation: %Repellency=100−[(T/C)×100] where: • T=the mean number of mosquitoes probing a treated well for that replicate at time tx • C=the mean number of mosquitoes probing the IPA control well at time tx The resulting percentages were then arcsine transformed and an ANOVA was conducted using the calculated repellency from all five replicates. Multiple comparisons of means were conducted using the Student-Newman-Keuls test. The mean arcsines from ANOVA were then converted back into percentages.
DHN derived from hydrogenation of trans,cis-nepetalactone (consisting principally of 1S,9S,5R,6R-5,9-dimethyl-3-20 oxabicyclo[4.3.0]nonan-2-one; Formula 4), designated “Experimental Sample #1”, and the mixture of dihydronepetalactones prepared according to Example 2 (designated Experimental Sample #2; mDHN), were tested for repellency against Stomoxys calcitrans, essentially as described in Example 3. The DHN used here differed from that prepared in Example 4 in that it was derived from hydrogenation (using a Pd/SrCO3 catalyst) of trans,cis-nepetalactone crystallized from commercial oil (Berjé, NJ). In these experiments, an additional positive control compound was included, namely p-menthane-3,8-diol (PMD), obtained from Takasago International Corp. (USA), Rockleigh, N.J. The experimental design is summarized in Table 10, and all data presented is an average of five replicate experiments.

[2] = test system: unfed adult female A. albimanus; assay: in vitro membrane repellency test against anopheles mosquitoes; type: in vivo, Anopheles albimanus; details: 1% (w/v); for Mean Number of Probes (SEM): 20 minute test; for Mean Number of Probes (SEM) / Mean percentage repellency as calculated from the ANOVA: five replicates; for Mean percentage repellency as calculated from the ANOVA: versus IPA control
Protocol: as §1, §2, §3
DHN derived from hydrogenation of trans,cis-nepetalactone (consisting principally of 1S,9S,5R,6R-5,9-dimethyl-3-oxabicyclo[4.3.0]nonan-2-one; Formula 4) designated “Experimental Sample #1”, and the mixture of dihydronepetalactones prepared according to Example 2 (designated as “Experimental Sample #2”; mDHN) were tested for repellency against one hundred unfed adult female A. albimanus, essentially as described in Example 3. The DHN used here differed from that prepared in Example 4 in that it was derived from hydrogenation (using a Pd/SrCO3 catalyst) of trans,cis-nepetalactone crystallized from commercial oil (Berjé, Bloomfield, N.J.). PMD was again included as a further control. The experimental design is summarized in Table 13, and all data presented is the average of five replicate experiments.

[3] = test system: female Anopheles albimanus mosquitoes; assay: mosquito repellency on forearms of human volunteers (test cage); type: in vivo; details: for Mean complete protection time (h) (SEM): 1.0 ml on 250 cm^2 forearm
Protocol: The DHN derived from hydrogenation of trans,cis-nepetalactone (consisting principally of 1S,9S,5R,6R-5,9-dimethyl-3-oxabicyclo[4.3.0]nonan-2-one; Formula 4), prepared as in Example 7, and the mixture of dihydronepetalactones prepared according to Example 2, were tested for repellency against A. albimanus, with DEET included in the test as a positive control, using adult human volunteers. Test cages (2×2×2 feet) with two sleeved entry ports on each of two opposite sides were used, with a hand rest in the center. The sides and top were screened and the base was equipped with a mirror to facilitate observations. Two hundred adult female mosquitoes, which had never received a blood meal and which had been deprived of their normal diet of 10% sucrose 24 h prior to use, were released into the test cage. Each volunteer was pre-qualified as attractive through having 10 insects land on their untreated forearms within 30 s of insertion into the cage.
A volume of 1.0 ml of each compound (either 5% or 10% (w/v) in isopropanol) was applied to 250 cm^2 areas on the forearms of six male human volunteers, the remainder of the limbs having been made inaccessible to insects. Each volunteer had different repellents applied individually onto each forearm. After allowing the applied repellents to dry for 30 min, the forearms were placed into the test cage for 5 min periods at 30 min intervals, and the number of mosquitoes probing or biting during each exposure period recorded. Breakdown of repellency was recorded for each repellent on each volunteer. Breakdown was defined as the time at which the first confirmed bite occurred; the first confirmed bite was defined as a bite which was followed by a second bite either within the same or the next exposure period. The data is presented in Table 17 as mean complete protection time.

[4] = test system: female Aedes aegypti mosquitoes; assay: in vitro membrane repellency test, probing of blood-filled wells; type: in vivo; details: for Mean percentage repellency as calculated from the ANOVA: versus IPA control
Protocol: as §1, §2
The dihydronepetalactone prepared in Example 4, Formula 4, was tested for repellency against Aedes aegypti mosquitoes essentially as described in Example 3. The experimental design is summarized in Table 6, and all data presented is from five replicate experiments.
as §3

[5] = test system: deer tick Ixodes scapularis; assay: tick repellency on forearms of human volunteers; type: in vivo; details: for statistical comparison of protection times (ANOVA): 30% (w/v); for Mean complete protection time (SEM): 30% (w/v) in isopropanol, 25 μl topically on 4 cm circle
Protocol: A volume of 25 μl of each compound (30% (w/v) in isopropanol) was applied within 4 cm diameter circles drawn on the left forearms of six male human volunteers. Each volunteer had two repellents applied individually within two circles on this forearm; a single 4 cm diameter circle drawn on the other arm was left untreated to act as a control for tick attractiveness. Laboratory-reared unfed nymphs of the deer tick Ixodes scapularis were brought within 1 mm of the untreated circles on cotton buds (Q-tip®). If normal questing behavior was observed, and/or the insect crawled onto the untreated area, it was deemed qualified and then presented to a treated area. A qualified tick which quested at or crawled onto the treated area within 60 s was recorded as having not been repelled. […] Additionally, a qualified tick that crawled onto the treated area but fell off within an additional 60 s was recorded as repelled. Each volunteer had 5 qualified ticks offered to each treated circle at approximately hourly intervals. Exposures continued until 3 out of any group of 5 offered ticks were deemed ‘attracted’. The first non-repelled tick was defined as the first attracted tick which was followed by a second attracted tick within the same or following exposure period. The time of the first confirmed attracted tick was deemed to be the time at which complete repellency ‘broke down’ for that volunteer.

[6] = test system: Monomorium destructor ants; details: after 25 seconds of exposure to vapors; cited from earlier work
[7] = 1% (w/v), 20 minute observation period, Example 5, five replicates
[8] = 1% (w/v), Example 5, five replicates

| Structure (SMILES) | repellency comparison between treatments (ANOVA) [1] | Mean Number of Landings (SEM) [1] | Mean percentage repellency as calculated from the ANOVA [1] | repellency comparison between treatments (ANOVA) [2] | Mean Number of Probes (SEM) [2] | Mean percentage repellency as calculated from the ANOVA [2] | Mean complete protection time (h) (SEM) ([3]; 5% (w/v) in isopropanol) | Mean complete protection time (h) (SEM) ([3]; 10% (w/v) in isopropanol) | Mean Number of Probes (SEM) [4, 7] | time until mosquito probing initiated (probing density over time, FIG. 9) ([4]; 1% (w/v), Example 5) | Mean Time (min) (SEM) to "First probe" [4, 8] | Mean percentage repellency as calculated from the ANOVA [4, 8] | statistical comparison of protection times (ANOVA) [5] | Mean complete protection time (SEM) [5] | also measured |
| --- | --- | --- | --- | --- | --- | --- | --- | --- | --- | --- | --- | --- | --- | --- | --- |
| CCN(CC)C(=O)c1cccc(C)c1 [DEET, N,N-diethyl-m-toluamide] | performed statistically equally well | 17.8 (4.96) | 55.5% | statistically equal in efficacy | 50.4 (13.01) | 13.3% | 4.0 (0.5) h | 6.2 (0.63) h | 4.8 (3.2) | 6 min | 14.8 min and 14.8 (3.2) min | 92.4% | statistically indistinguishable in the longevity of their repellency | 124 min and 124.0 (69.95) min | Mean Time (min) (SEM) to "First probe" ([4]; 1% (w/v) in isopropyl alcohol, 25 μl on membrane, Example 3, three replicates): 12 min and 12.0 (0.0) min; Mean Number of Probes (SEM) ([4]; 1% (w/v), over 20 min, Example 3, three replicates): 4.55 and 4.55 (0.29) |
| C[C@H]1COC(=O)[C@@H]2[C@@H]1CC[C@@H]2C [DHN, (1S,9S,5R,6R)-5,9-dimethyl-3-oxabicyclo[4.3.0]nonan-2-one] | performed statistically equally well | 21.2 (3.35) | 43.2% | statistically equal to DEET | 38.0 (9.71) | 32.9% | 1.8 (0.12) h | 3.5 h and 3.5 (0.29) h | 4.0 (2.16) | 10 min | 16.0 (2.09) min | 96.1% | statistically indistinguishable in the longevity of their repellency | 109 min and 109.0 (58.64) min | statistical comparison of protection times (ANOVA) ([3]; 5% and 10% (w/v)): provided lesser protection times; Mean Number of Probes (SEM) ([4]; 0.2% (w/v), 20 minute observation period, Example 5, five replicates): 23.2 (5.97); Mean Time (min) (SEM) to "First probe" ([4]; 0.2% (w/v), Example 5, five replicates): 8.4 (1.16) min; Mean Time (min) (SEM) to "First probe" ([4]; 0.2% (w/v), Example 5, five replicates, listed as dihydronepetalactone): 8.4 min; Mean Number of Probes (SEM) ([4]; 0.5% (w/v), 20 minute observation period, Example 5, five replicates): 16.2 (5.49); Mean Time (min) (SEM) to "First probe" ([4]; 0.5% (w/v), Example 5, five replicates): 9.6 (2.48) min; Mean Time (min) (SEM) to "First probe" ([4]; 0.5% (w/v), Example 5, five replicates, listed as dihydronepetalactone): 9.6 min; Mean percentage repellency as calculated from the ANOVA ([4]; 0.5% (w/v), Example 5): 66.7%; repellency rank and statistical comparison with 1% DEET ([4]; 1% (w/v), Example 5, ANOVA, Student-Newman-Keuls): ranked first in repellency, and was statistically indistinguishable from 1% DEET; Mean Time (min) (SEM) to "First probe" ([4]; 1% (w/v), Example 5, five replicates, listed as Dihydronepetalactone): approximately 16 min |
| CC1CCC(C(C)(C)O)C(O)C1 (centres unmarked) [PMD, p-menthane-3,8-diol] |  | 33.6 (9.21) | 4.7% | statistically equal in efficacy | 47.2 (8.57) | 11.5% |  |  |  |  |  |  |  |  | time after which compound became ineffective in repelling landings [1]: 6 min |
| CC1COC(=O)C2C(C)CCC12 (centres unmarked) [pure dihydronepetalactone, dihydronepetalactone] |  |  |  |  |  |  |  |  |  |  |  |  |  |  | ants that ceased to feed [6]: 50-60% |
